From patent US20100215775A1, “USE OF C10-C14-ALKANEDIOLS IN THE PREPARATION OF A COMPOSITION FOR THE PROPHYLAXIS AND/OR TREATMENT OF MALASSEZIA-INDUCED DANDRUFF FORMATION” (SYMRISE GmbH & Co. KG, priority 2006, published 2010) come the findings set out here.

The test system of the assay is Malassezia furfur strain DSM6171. The assay is described as follows: MIC value measurement by agar dilution method against Malassezia furfur. The assay is classed as cell-based, Malassezia furfur (synonym: Pityrosporum ovale). The settings on record: for MIC / factor by which activity is greater than that of 1,2-octanediol: Malassezia furfur; for MIC: DSM6171, 72 h; for factor by which activity is greater than that of 1,2-octanediol: ratio of MIC values versus 1,2-octanediol (MIC 225 ppm). As for the experimental part:
The antimicrobial action of the alkane-1,2-diols against Malassezia furfur was determined by means of the agar dilution method in accordance with DIN 58 940/ICS and DIN 58 944/ICS. Malassezia furfur strain DSM6171 was used as the test organism. Petri dishes having a diameter of 9 cm and containing 8.7 ml of freshly prepared Mueller-Hinton agar (Merck, art. 1.05437) kept liquid at 50° C. and containing 3% Tween 80 (Merck, art. 8.2217) were used. In order to prepare the test concentrations, ethanolic stock solutions of the alkane-1,2-diol samples were diluted with 96% ethanol until the following final test concentrations of the alkane-1,2-diols in the Mueller-Hinton agar were present: 25,000 ppm, 12,500 ppm, 6300 ppm, 3600 ppm, 1800 ppm, 1100 ppm, 900 ppm, 450 ppm, 225 ppm, 112 ppm, 56 ppm, 28 ppm, 14 ppm, 7 ppm, 4 ppm. 2 agar plates were cast per test concentration and nutrient medium. After solidification and drying (about 1 hour at 37° C.), the test plates were inoculated punctually with in each case 1 μl of the Malassezia furfur (DSM 6171-2.8×10^7 KBE/ml) test organism suspensions. The inoculated plates were subsequently incubated for 72 hours at 30° C. and then evaluated. The lowest active ingredient concentration at which, macroscopically, no growth is present was regarded as the MIC (minimum inhibitory concentration). The MIC values of the alkane-1,2-diols listed in Table 1 were determined in accordance with the general test conditions.

Where [1] appears, read: agar dilution, Mueller-Hinton agar with 3% Tween 80, 72 hours at 30° C., lowest concentration with no macroscopic growth.

Values after ≈ are worked out from the molar mass of the structure shown.

In the case of `CCCCCCCCCCCCCCCCC(O)CO` (stereo not shown) [1,2-Octadecanediol], under setting [1], the MIC is above 1100 µg/mL and the MIC value is above 1100 ppm.

Take `CCCCCCCCCCC(O)CO` (stereo not shown) [1,2-Dodecanediol]: the “factor by which activity is greater than that of 1,2-octanediol” value (“factor” for short) is “about 16”.

As to `CCCCCCCCC(O)CO` (stereo not shown) [1,2-Decanediol], the “factor” value is given as “about 8”.

`CCCCCCCCCCCCCCC(O)CO` (stereo not shown) [1,2-Hexadecanediol]: under setting [1], the MIC was 1100 µg/mL (≈ 4.26 mM).

With `CCCC(O)CO` (stereo not shown) [1,2-Pentanediol], the MIC under setting [1] was found to be 25000 µg/mL (≈ 240 mM).

Turning to `CCCCCCCCCCCCC(O)CO` (stereo not shown) [1,2-Tetradecanediol], the “factor” value is on record as “at least 32”. Moreover, the MIC under setting [1] was below 7 µg/mL.

`CCCCCCC(O)CO` (stereo not shown) [1,2-Octanediol] showed an MIC under setting [1] of 225 µg/mL (≈ 1.54 mM).

`CCCCC(O)CO` (stereo not shown) [1,2-Hexanediol] registered an MIC under setting [1] of 12500 µg/mL (≈ 106 mM).
